Data from US11279683B2, “Thiophene derivatives as antiviral agents” (ENYO PHARMA, priority 2016, dated 2022).
Read-outs that look alike come from different tables or passages of the source.

Test system: H1N1 (influenza A/New Caledonia/20/99)
Assay: microbe, parasite or virus in culture
Type: cell-based
[1] = Influenza A virus, H1N1, A549, 48 h

Row | Structure (SMILES) | IC50 [1] [µM] | IC50 [µM]
1 | CCc1c(C)sc(NC(=O)C2CCCCC2C(=O)O)c1C(=O)Nc1cccc(Cl)c1 (stereo not shown) [Compound 70, 2-[[3-[(3-Chlorophenyl)carbamoyl]-4-ethyl-5-methyl-2-thienyl]carbamoyl]cyclohexanecarboxylic acid] | 14.7 | –
2 | Cc1cncc(NC(=O)c2c(NC(=O)C3CCCCC3C(=O)O)sc3c2CCC3)c1 (stereo not shown) [Compound 33, 2-[[3-[(5-Methyl-3-pyridyl)carbamoyl]-5,6-dihydro-4H-cyclopenta[b]thiophen-2-yl]carbamoyl]cyclohexanecarboxylic acid] | 27.4 | –
3 | O=C(Nc1ccc(Cl)cc1)c1c(NC(=O)C2CCC(C(=O)O)CC2)sc2c1CCC2 (single isomer, unassigned) [Compound 98, 4-[[3-[(4-chlorophenyl)carbamoyl]-5,6-dihydro-4H-cyclopenta[b]thiophen-2-yl]carbamoyl]cyclohexanecarboxylic acid] | – | 15.9
4 | CONC(=O)[C@@H]1CCCC[C@@H]1C(=O)Nc1sc2c(c1C(=O)Nc1ccc(Cl)cc1)CCC2 (stereo in doubt) [Compound 88, N1-[3-[(4-chlorophenyl)carbamoyl]-5,6-dihydro-4H-cyclopenta[b]-thiophen-2-yl]-N2-methoxy-cyclohexane-1,2-dicarboxamide] | 8.4 | –
5 | NS(=O)(=O)N1CCOC(C(=O)Nc2sc3c(c2C(=O)Nc2ccc(Cl)cc2)CCC3)C1 (stereo not shown) [Compound 87, N-[3-[(4-chlorophenyl)carbamoyl]-5,6-dihydro-4H-cyclopenta[b]thiophen-2-yl]-4-sulfamoyl-morpholine-2-carboxamide] | 6.75 | –
6 | CN(C(=O)c1c(NC(=O)C2CCCCC2C(=O)O)sc2c1CCC2)c1ccc(Cl)cc1 (stereo not shown) [Compound 34, 2-[[3-[(4-Chlorophenyl)-methyl-carbamoyl]-5,6-dihydro-4H-cyclopenta[b]thiophen-2-yl]carbamoyl]cyclohexanecarboxylic acid] | 30.4 | –
7 | O=C(Nc1ccc(Cl)cc1)c1c(NC(=O)C2CCCCC2C(=O)O)sc2c1CCCC2 (stereo not drawn) [Compound 61, 2-[[3-[(4-Chlorophenyl)carbamoyl]-4,5,6,7-tetrahydrobenzothiophen-2-yl]carbamoyl]cyclohexane-cis-carboxylic acid] | 8.59 | –
8 | Cc1cc(NC(=O)c2c(NC(=O)C3CCCCC3C(=O)O)sc3c2CCC3)ccc1Cl (stereo not shown) [Compound 13, 2-[[3-[(4-Chloro-3-methyl-phenyl)carbamoyl]-5,6-dihydro-4H-cyclopenta[b]thiophen-2-yl]carbamoyl]cyclohexanecarboxylic acid] | 4.68 | –
9 | O=C(O)c1ccccc1C(=O)Nc1sc2c(c1C(=O)Nc1ccc(Cl)cc1)CCC2 [Compound 44, 2-[[3-[(4-Chlorophenyl)carbamoyl]-5,6-dihydro-4H-cyclopenta[b]thiophen-2-yl]carbamoyl]benzoic acid] | 21.6 | –
10 | O=C(Nc1cccc(C(F)(F)F)c1)c1c(NC(=O)C2CCCCC2C(=O)O)sc2c1CCC2 (stereo not shown) [Compound 77, 2-[[3-[[3-(Trifluoromethyl)phenyl]carbamoyl]-5,6-dihydro-4H-cyclopenta[b]thiophen-2-yl]carbamoyl]cyclohexanecarboxylic acid] | 6.78 | –
11 | Cc1nccn1CC(=O)Nc1sc2c(c1C(=O)Nc1ccc(Cl)cc1)CCCC2 [Compound 75, N-(4-Chlorophenyl)-2-[[2-(2-methylimidazol-1-yl)acetyl]amino]-4,5,6,7-tetrahydrobenzothiophene-3-carboxamide] | 17.1 | –
12 | O=C(NCc1ccccc1)c1c(NC(=O)C2CCCCC2C(=O)O)sc2c1CCC2 (stereo not shown) [Compound 63, 2-[[3-(Benzylcarbamoyl)-5,6-dihydro-4H-cyclopenta[b]thiophen-2-yl]carbamoyl]cyclohexanecarboxylic acid] | 21.4 | –
13 | CCCCCNC(=O)c1c(NC(=O)C2CCCCC2C(=O)O)sc2c1CCC2 (stereo not shown) [Compound 22, 2-[[3-(pentylcarbamoyl)-5,6-dihydro-4H-cyclopenta[b]thiophen-2-yl]carbamoyl]cyclohexanecarboxylic acid] | 20.3 | –
14 | O=C(Nc1ccc(CCO)cc1)c1c(NC(=O)C2CCCCC2C(=O)O)sc2c1CCC2 (stereo not shown) [Compound 9, 2-[[3-[[4-(2-Hydroxyethyl)phenyl]carbamoyl]-5,6-dihydro-4H-cyclopenta[b]thiophen-2-yl]carbamoyl]cyclohexanecarboxylic acid] | 21.1 | –
15 | COc1cccc(NC(=O)c2c(NC(=O)C3CCCCC3C(=O)O)sc3c2CCC3)c1 (stereo not shown) [Compound 64, 2-[[3-[(3-Methoxyphenyl)carbamoyl]-5,6-dihydro-4H-cyclopenta[b]thiophen-2-yl]carbamoyl]cyclohexanecarboxylic acid] | 14.1 | –
16 | O=C(Nc1cnc(Cl)cn1)c1c(NC(=O)C2CCCCC2C(=O)O)sc2c1CCC2 (stereo not shown) [Compound 26, 2-[[3-[(5-Chloropyrazin-2-yl)carbamoyl]-5,6-dihydro-4H-cyclopenta[b]thiophen-2-yl]carbamoyl]cyclohexanecarboxylic acid] | 19.3 | –
17 | CS(=O)(=O)c1ccc(NC(=O)c2c(NC(=O)C3CCCCC3C(=O)O)sc3c2CCC3)cc1 (stereo not shown) [Compound 31, 2-[[3-[(4-Methylsulfonylphenyl)carbamoyl]-5,6-dihydro-4H-cyclopenta[b]thiophen-2-yl]carbamoyl]cyclohexanecarboxylic acid] | 27.3 | –

Row | Structure (SMILES) | IC50 [1] [µM] | IC50 [µM]
18 | NC(=O)C1CCCCC1C(=O)Nc1sc2c(c1C(=O)Nc1ccc(Cl)cc1)CCC2 (stereo not shown) [Compound 55, N2-[3-[(4-Chlorophenyl)carbamoyl]-5,6-dihydro-4H-cyclopenta[b]thiophen-2-yl]cyclohexane-1,2-dicarboxamide] | 27 | –
19 | O=C(Nc1ccc2c(c1)COC2)c1c(NC(=O)C2CCCCC2C(=O)O)sc2c1CCC2 (stereo not shown) [Compound 30, 2-[[3-(1,3-Dihydroisobenzofuran-5-ylcarbamoyl)-5,6-dihydro-4H-cyclopenta[b]thiophen-2-yl]carbamoyl]cyclohexanecarboxylic acid] | 19.6 | –
20 | CS(=O)(=O)N1CCOC(C(=O)Nc2sc3c(c2C(=O)Nc2ccc(Cl)cc2)CCC3)C1 (stereo not shown) [Compound 86, N-[3-[(4-chlorophenyl)carbamoyl]-5,6-dihydro-4H-cyclopenta[b]thiophen-2-yl]-4-methylsulfonyl-morpholine-2-carboxamide] | 6.3 | –
21 | COc1ccc(NC(=O)c2c(NC(=O)C3CCCCC3C(=O)O)sc3c2CCC3)cc1 (stereo not shown) [Compound 76, 2-[[3-[(4-Methoxyphenyl)carbamoyl]-5,6-dihydro-4H-cyclopenta[b]thiophen-2-yl]carbamoyl]cyclohexanecarboxylic acid] | 14.1 | –
22 | O=C1CC(C(=O)Nc2sc3c(c2C(=O)Nc2ccc(Cl)cc2)CCC3)CCN1 (stereo not shown) [Compound 101, N-[3-[(4-chlorophenyl)carbamoyl]-5,6-dihydro-4H-cyclopenta[b]thiophen-2-yl]-2-oxo-piperidine-4-carboxamide] | 19 | –
23 | O=C(Nc1ccc(Cl)cc1)c1c(NC(=O)C2CCCCC2C(=O)O)sc2c1CCOC2 (stereo not shown) [Compound 37, 2-[[3-[(4-Chlorophenyl)carbamoyl]-5,7-dihydro-4H-thieno[2,3-c]pyran-2-yl]carbamoyl]cyclohexanecarboxylic acid] | 43.4 | –
24 | CC1CCC(NC(=O)c2c(NC(=O)C3CCCCC3C(=O)O)sc3c2CCC3)CC1 (stereo not shown) [Compound 35, 2-[[3-[(4-Methylcyclohexyl)carbamoyl]-5,6-dihydro-4H-cyclopenta[b]thiophen-2-yl]carbamoyl]cyclohexanecarboxylic acid] | 12.4 | –
25 | Cc1cccc(NC(=O)c2c(NC(=O)C3CC=CCC3C(=O)O)sc3c2CCCC3)c1 (stereo not shown) [Compound 68, 6-[[3-(m-Tolylcarbamoyl)-4,5,6,7-tetrahydrobenzothiophen-2-yl]carbamoyl]cyclohex-3-ene-1-carboxylic acid] | 11.7 | –
26 | O=C(NCc1cccc(Cl)c1)c1c(NC(=O)C2CCCCC2C(=O)O)sc2c1CCC2 (stereo not shown) [Compound 11, 2-[[3-[(3-Chlorophenyl)methylcarbamoyl]-5,6-dihydro-4H-cyclopenta[b]thiophen-2-yl]carbamoyl]cyclohexanecarboxylic acid] | 8.63 | –
27 | O=C(Nc1ccc(Cl)cc1)c1c(NC(=O)C2COCCN2)sc2c1CCC2 (stereo not shown) [Compound 103, N-[3-[(4-chlorophenyl)carbamoyl]-5,6-dihydro-4H-cyclopenta[b]thiophen-2-yl]morpholine-3-carboxamide] | 24.2 | –
28 | O=C1CCCC(C(=O)Nc2sc3c(c2C(=O)Nc2ccc(Cl)cc2)CCC3)C1 (stereo not shown) [Compound 53, N-(4-Chlorophenyl)-2-[(3-oxocyclohexanecarbonyl)amino]-5,6-dihydro-4H-cyclopenta[b]thiophene-3-carboxamide] | 12.8 | –
29 | O=C(Nc1ccc(-c2ccccc2)cc1)c1c(NC(=O)C2CCCCC2C(=O)O)sc2c1CCC2 (stereo not shown) [Compound 10, 2-[[3-[(4-Phenylphenyl)carbamoyl]-5,6-dihydro-4H-cyclopenta[b]thiophen-2-yl]carbamoyl]cyclohexanecarboxylic acid] | 2.38 | –
30 | O=C(Nc1ncc(Cl)s1)c1c(NC(=O)C2CCCCC2C(=O)O)sc2c1CCC2 (stereo not shown) [Compound 29, 2-[[3-[(5-Chlorothiazol-2-yl)carbamoyl]-5,6-dihydro-4H-cyclopenta[b]thiophen-2-yl]carbamoyl]cyclohexanecarboxylic acid] | 6.78 | –
31 | O=C(Nc1ccccc1)c1c(NC(=O)C2CCCCC2C(=O)O)sc2c1CCC2 (stereo not shown) [Compound 74, 2-[[3-(Phenylcarbamoyl)-5,6-dihydro-4H-cyclopenta[b]thiophen-2-yl]carbamoyl]cyclohexanecarboxylic acid] | 12.4 | –
32 | O=C(NCC1CCCCC1)c1c(NC(=O)C2CCCCC2C(=O)O)sc2c1CCC2 (stereo not shown) [Compound 24, 2-[[3-(Cyclohexylmethylcarbamoyl)-5,6-dihydro-4H-cyclopenta[b]thiophen-2-yl]carbamoyl]cyclohexanecarboxylic acid] | 12.3 | –
33 | CC(=O)N1CCC1C(=O)Nc1sc2c(c1C(=O)Nc1ccc(Cl)cc1)CCC2 (stereo not shown) [Compound 84, 1-acetyl-N-[3-[(4-chlorophenyl)carbamoyl]-5,6-dihydro-4H-cyclopenta[b]thiophen-2-yl]azetidine-2-carboxamide] | 29.6 | –
34 | NC(=O)N1CCCC(C(=O)Nc2sc3c(c2C(=O)Nc2ccc(Cl)cc2)CCC3)C1 (stereo not shown) [Compound 92, N3-[3-[(4-chlorophenyl)carbamoyl]-5,6-dihydro-4H-cyclopenta[b]thiophen-2-yl]piperidine-1,3-dicarboxamide] | 11.4 | –
